The record followed here is US11208443B2, “NAF-1 derived peptides and uses thereof” (YISSUM RESEARCH DEVELOPMENT COMPANY OF THE HEBREW …, priority 2017, dated 2021).

Data set [1] has as its system MDA-MB-231 breast cancer spheroids. Put plainly: 3D spheroid apoptosis/cytotoxicity, Annexin V-red, IncuCyte. Type of data set: cell-based, human. The note with it: incubated for 36 hours, 10 or 50 μM, FIG. 11. The method, then: (§1) The MDA-MB-231 cells were plated in quadruplicate at 2×10^3 cells per well in a 96 well ULA plate (Corning 7007) and the cells were further cultured for 3 days to form spheroids. Then, the spheroids were treated with the peptides having SEQ ID NO:1 and the apoptosis of spheroids was assayed using Annexin V-red detection marker. Spheroids were imaged at ×10 magnification in an IncuCyte Zoom Live-cell analysis system (Essen Bioscience) at 37° C. with 5% CO2. Spheroid cell images were recorded every two hours and the resulting red colors, reflecting cell apoptosis, were analyzed with the IncuCyte software.)
(§2) Similarly to Example 2, the effect of D-PEP on “tumor like” 3D cancer cell spheroids of prostate cancer cells PC3 and MDA-MB-231, was tested and quantified. Annexin V-red apoptosis marker indicator was used to assess cytotoxicity and the cytotoxicity was calculated as integrated intensity over the surface (RCU×μm^2/Image).

A short description of data set [2]: Mice weight in xenograft study. The class given is in vivo. The note with it: 135 μg/Kg IP or IT, days 18-30; all groups. The method, then: 30 female athymic nude (FOXN1NU) mice (5-6 weeks old) were injected subcutaneously (S.C.) with 2.5×10^6 MDA-MB-231 cells overexpressing NAF-1. Two and half weeks (day 18) after S.C. injection, mice weight and tumor size was measured. Mice were divided into three different treatment groups that were administrated 3 serial injections per week, on days 18, 21, 23, 25, 28, and 30. The groups were as follows: Group 1: Intraperitoneal (IP) injection of 135 μg/Kg D-PEP; Group 2: Intratumoral (IT) injection of PBS—control; and Group 3: Intratumoral (IT) injection of 135 μg/Kg D-PEP. On days 18, 21, 23, 25, 28 and 30 after S.C. injection of the tumor cells, tumor size and mice weight was measured in all groups.

The subject of data set [3] is chymotrypsin. Description: Stability against protease cleavage, HPLC. The note with it: 0.001 mg/ml protease, 22° C., FIG. 17A. The class given is in vitro ADME. Here is the method:
(§3) Stability of the D-PEP, and 3D-PEP, analogs, and of PEG-N-3D-PEP and PEG-C-3D-PEP conjugates against protease cleavage (chymotrypsin and trypsin) was tested and compared to stability of the native peptide having SEQ ID NO: 1. To peptides' stocks of 430 μl in concentration of 450 μM were added 0.001 mg/ml protease (Trypsin or Chymotrypsin) and incubated in room temperature (22° C.). Samples of 40 μl were taken before adding the protease and after every 15 min in the first hour, and after 2 […] and 24 h. To stop the proteolysis samples were added 7 μl of 2% TFA in TDW. The samples were added 60 μl TDW and were analyzed using analytical HPLC.

Data set [4] deals with PC3 (prostate cancer) spheroids. Description: 3D spheroid cytotoxicity, Annexin V-red, IncuCyte. Type of data set: cell-based. The method, then: as §1, §2
The subject of data set [5] is trypsin. Description: Stability against protease cleavage, HPLC. Type of data set: in vitro ADME. The settings on record: 0.001 mg/ml protease, 450 μM peptide, 22° C.; FIG. 17B. The method, then:
as §3

Non-standard residues stand in square brackets, D forms with d. Residues, ends and D or L forms follow the SMILES beside them.

Regarding `CC(C)C[C@@H](NC(=O)[C@H](N)Cc1ccccc1)C(=O)NCC(=O)N[C@@H](C(=O)N[C@H](CC(C)C)C(=O)N[C@H](C)C(=O)N[C@H](CC(C)C)C(=O)N[C@H](CC(C)C)C(=O)NCC(=O)N[C@H](Cc1ccc(O)cc1)C(=O)N[C@H](CC(C)C)C(=O)N[C@H](C)C(=O)N[C@@H](C(=O)N[C@H](CCCNC(=N)N)C(=O)N1CCC[C@@H]1C(=O)N[C@H](Cc1ccccc1)C(=O)N[C@H](CC(C)C)C(=O)N1CCC[C@@H]1C(=O)N[C@H](CCCCN)C(=O)N[C@H](CCCCN)C(=O)N[C@H](CCCCN)C(=O)N[C@H](CCC(N)=O)C(=O)N[C@H](CCC(N)=O)C(=O)N[C@H](CCCCN)C(=O)O)C(C)C)C(C)C` [D-PEP, flgvlallgylavrpflpkkkqqk] (H-[dF][dL]G[dV][dL][dA][dL][dL]G[dY][dL][dA][dV][dR][dP][dF][dL][dP][dK][dK][dK][dQ][dQ][dK]-OH; N-terminus and C-terminus assumed), the “cytotoxicity (total toxicity integrated intensity)” value in data set [1] is “comparable to that seen for PC3 cell”; in data set [4] (10 μM, incubation for 8 hours, FIG. 7), “much more moderate”; in data set [4] (50 μM, 36 hour, compared to control, FIG. 8), “much more significant cytotoxic effect than 10 μM of D-PEP”; in data set [4] (50 μM, incubation for 8 hours, FIG. 7), “substantial cytotoxic effect”. Also, in data set [2], the mice weight result is reported as “not significant change in the weight of mice”. In addition, in data set [3] (chymotrypsin (isolated protease), after 1400 min, read-out: peptide degraded by chymotrypsin), the metabolised at 1400 min, 450 μM was 20%.
Turning to `CC(C)C[C@H](NC(=O)[C@H](C)NC(=O)[C@H](CC(C)C)NC(=O)[C@@H](NC(=O)CNC(=O)[C@H](CC(C)C)NC(=O)[C@@H](N)Cc1ccccc1)C(C)C)C(=O)N[C@@H](CC(C)C)C(=O)NCC(=O)N[C@@H](Cc1ccc(O)cc1)C(=O)N[C@@H](CC(C)C)C(=O)N[C@@H](C)C(=O)N[C@H](C(=O)N[C@@H](CCCNC(=N)N)C(=O)N1CCC[C@H]1C(=O)N[C@@H](Cc1ccccc1)C(=O)N[C@@H](CC(C)C)C(=O)N1CCC[C@H]1C(=O)N[C@@H](CCCCN)C(=O)N[C@@H](CCCCN)C(=O)N[C@@H](CCCCN)C(=O)N[C@@H](CCC(N)=O)C(=O)N[C@@H](CCC(N)=O)C(=O)N[C@@H](CCCCN)C(=O)O)C(C)C` [SEQ ID NO: 1] (H-FLGVLALLGYLAVRPFLPKKKQQK-OH; N-terminus and C-terminus assumed), the “time to complete degradation by chymotrypsin” value in data set [3] (450 μM peptide) is ~100 min. In addition, the “time to complete degradation by trypsin” value in data set [5] was determined as 400 min.
